Data taken from paper PMC6857856, “Characterization of two thermophilic cellulases from Talaromyces leycettanus JCM12802 and their synergistic action on cellulose hydrolysis” (PLoS ONE, 2019).

Target: T1, TlCel5A (Evansstolkia leycettana, UniProt A0A3G5ECP2)
T1 construct: mature protein, 18-residue signal peptide removed (precursor 409 residues); catalytic domain, linker, C-terminal CBM; pPIC9, secreted from Pichia pastoris GS115, purified
Assay: HPAEC analysis of hydrolysis products
Type: biochemical
Conditions: 60 °C; 200 μg substrate in 1 mL, 0.05 U enzyme

T1 sequence (A0A3G5ECP2 19-409): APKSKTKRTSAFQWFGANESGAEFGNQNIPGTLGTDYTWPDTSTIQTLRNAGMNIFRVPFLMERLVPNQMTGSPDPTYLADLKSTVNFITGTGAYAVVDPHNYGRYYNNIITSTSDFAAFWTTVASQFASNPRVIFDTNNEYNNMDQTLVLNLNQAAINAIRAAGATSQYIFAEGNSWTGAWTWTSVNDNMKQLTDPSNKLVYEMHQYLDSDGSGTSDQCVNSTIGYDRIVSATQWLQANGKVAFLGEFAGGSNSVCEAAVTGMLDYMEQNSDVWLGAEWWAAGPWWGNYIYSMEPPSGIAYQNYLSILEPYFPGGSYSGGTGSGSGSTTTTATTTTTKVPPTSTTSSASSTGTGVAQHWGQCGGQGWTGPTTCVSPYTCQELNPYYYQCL

SMILES | HPAEC analysis of hydrolysis products
OC[C@H]1O[C@@H](O[C@H]2[C@H](O)[C@@H](O)[C@H](O[C@H]3[C@H](O)[C@@H](O)[C@H](O[C@H]4[C@H](O)[C@@H](O)[C@H](O[C@H]5[C@H](O)[C@@H](O)[C@H](O[C@H]6[C@H](O)[C@@H](O)C(O)O[C@@H]6CO)O[C@@H]5CO)O[C@@H]4CO)O[C@@H]3CO)O[C@@H]2CO)[C@H](O)[C@@H](O)[C@@H]1O (some centres unmarked) [cellohexaose] | cellohexaose into cellobiose, cellotriose, cellotetraose and cellopentaose
OC[C@H]1O[C@@H](O[C@H]2[C@H](O)[C@@H](O)[C@H](O[C@H]3[C@H](O)[C@@H](O)[C@H](O[C@H]4[C@H](O)[C@@H](O)[C@H](O[C@H]5[C@H](O)[C@@H](O)C(O)O[C@@H]5CO)O[C@@H]4CO)O[C@@H]3CO)O[C@@H]2CO)[C@H](O)[C@@H](O)[C@@H]1O (some centres unmarked) [cellopentaose] | cleaved cellopentaose into mainly cellobiose and cellotriose and low amounts of cellotetraose
